US20150231130A1, “PHARMACEUTICAL COMPOSITION COMPRISING DIAMORPHINE FOR INTRANASAL ADMINISTRATION” (WOCKHARDT LIMITED, priority 2012, published 2015)
Entries after “also recorded” stand apart in the source; their conditions may differ.

Legend:
[1] = FLACC total pain scores, open label single dose clinical study of diamorphine hydrochloride nasal spray in children; assay type: in vivo; conditions: 0.1 mg/kg body weight intranasally; children aged 1-<16 years
Source text: An open label, single dose, sparse sampling pharmacokinetic dentate study in children aged from 1-<16 years attending hospital clinics for minor day surgery or laser treatment and requiring intravenous cannulation and opiate analgesia for their routine clinical management. The cannulation site on the child's arm was numbed with local anaesthetic cream, and a cannula was inserted. The child was then anaesthetized and a baseline blood sample taken. The child received 1-3 sprays of intranasal diamorphine, depending on their weight, and another blood sample was taken as soon as possible (from 0-10 minutes) post dose. […] Plasma acetylmorphine, morphine, morphine-3-glucuronide, and morphine-6-glucuronide concentrations were determined. The data from all children taking part in the trial was pooled and analysed together to avoid excessive blood sampling. […] Adverse events, vital signs, nasal tolerance and pain scores were also monitored. […]
For assessing the effectiveness of the Diamorphine Hydrochloride Nasal Spray pain scores were measured. The investigators or nurses measured the FLACC scores. The total score was based on 5 categories: (F) Face; (L) Legs; (A) Activity; (C) Cry; (C) Consolability; are scored between […]. […]

[2] = in presence of water degrades; cited from earlier work
[3] = cited from earlier work
[4] = 0.1 mg/kg of body weight, intravenous injection; cited from earlier work
human plasma proteins = conditions: cited from earlier work
[5] = Respiratory depression (clinically notable changes in vital signs) in the clinical study; assay type: in vivo, children; conditions: single intranasal dose, 0.1 mg/kg body weight
Source text: (§1) An open label, single dose, sparse sampling pharmacokinetic dentate study in children aged from 1-<16 years attending hospital clinics for minor day surgery or laser treatment and requiring intravenous cannulation and opiate analgesia for their routine clinical management. The cannulation site on the child's arm was numbed with local anaesthetic cream, and a cannula was inserted. The child was then anaesthetized and a baseline blood sample taken. The child received 1-3 sprays of intranasal diamorphine, depending on their weight, and another blood sample was taken as soon as possible (from 0-10 minutes) post dose. Up to four further pharmacokinetic blood samples were taken from the cannula for the purposes of the study spaced out over the following time windows: 10-20 minutes, 20-30 minutes, 30-45 minutes, 45-60 minutes, 60-120 minutes and between 120 minutes post dose and removal of the cannula. Plasma acetylmorphine, morphine, morphine-3-glucuronide, and morphine-6-glucuronide concentrations were determined. The data from all children taking part in the trial was pooled and analysed together to avoid excessive blood sampling. Population pharmacokinetic parameters were estimated by using a non-linear mixed effects dentate approach. Adverse events, vital signs, nasal tolerance and pain scores were also monitored. […]

[6] = Adverse events, open label single dose clinical study of diamorphine hydrochloride nasal spray in children; assay type: in vivo; conditions: single intranasal dose
Source text: as §1

Compound: CC(=O)Oc1ccc2c3c1OC1[C@@H](OC(C)=O)C=C[C@H]4[C@@H](C2)N(C)CC[C@]314 (some centres unmarked) [diamorphine, 3,6-diacetyl ester of morphine]
- Analgesic effectiveness (in words) [1]: effective alone in producing the analgesic effects
- Stability in liquid dosage form (in words) [2]: highly unstable in liquid dosage form
- half-life ([3]; in man): two to three
- Duration of analgesic effect ([3]; in vivo): three to four
- Respiratory depressant effect (in words) [4]: respiratory depressant effect is reported
- Protein binding (in words) (human plasma proteins): does not bind to protein
- Respiratory depression (clinically notable changes in vital signs) [5]: free from the major side effects such as respiratory depression; also recorded: No respiratory depressant effect was observed
- Incidence of adverse events (in words) [6]: very low
